This passage reports activation and EC50 results from US8293729B2 (Boehringer Ingelheim International GmbH, priority 2009, dated 2012).

The EC50 is the midpoint of the concentration-response curve.

The first experiment addresses T1, human GPR119 receptor (Homo sapiens, UniProt Q8TDV5, S329A/T327A).
T1 construct: N-terminal leader […]; expressed in transfected cells
T1 sequence (Q8TDV5 with tags, fused parts or gaps T327A/S329A): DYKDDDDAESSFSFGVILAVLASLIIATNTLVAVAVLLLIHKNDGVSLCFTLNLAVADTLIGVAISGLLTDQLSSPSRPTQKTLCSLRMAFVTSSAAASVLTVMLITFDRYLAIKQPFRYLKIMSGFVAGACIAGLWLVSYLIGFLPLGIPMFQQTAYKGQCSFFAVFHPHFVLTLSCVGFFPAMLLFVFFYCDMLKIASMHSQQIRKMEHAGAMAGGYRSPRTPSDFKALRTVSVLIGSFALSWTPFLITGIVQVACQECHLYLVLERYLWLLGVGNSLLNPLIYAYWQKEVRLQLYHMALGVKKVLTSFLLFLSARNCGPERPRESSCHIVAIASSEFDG
Description: cAMP assay (LANCE cAMP-384) in HEK293 cells stably expressing mutant human GPR119 receptor. It is filed as cell-based. Conditions: HEK293, 20 min; single concentration 10 μM; given where no EC50 value could be determined; read-out: % stimulation at 10 μM. As for the experimental part: Quantitative detection of cAMP accumulation from cells expressing human GPR119 receptor was achieved using Perkin Elmer's LANCE cAMP-384 Kit (Cat#AD0264) according to the manufacturer's protocol. Briefly, HEK293 cells stably expressing a mutant form of the human GPR119 receptor (Methionine 1 replaced with the amino acid sequence […] (SEQ ID NO: 1), and T327 & S329 changed to alanines) were grown to 50-70% confluency in cell culture media (DMEM, 10% heat inactivated Fetal Bovine Serum, 50 I.U./mL penicillin, 50 μg/mL streptomycin, 10 mM HEPES, 20 μg/mL G418 Sulfate). On the day of the assay, GPR119 stable HEK293 cells were lifted from the tissue culture plate and 1000 cells/well were incubated along with various concentrations of test compounds for 20 min at 37° C. Detection Buffer (50mM HEPES, 10mM calcium chloride, 0.35% Triton X-100, 1 mg/mL BSA) containing cAMP-specific antibody was then added to all wells and allowed to equilibrate in the dark for 10 minutes at room temperature. Upon equilibration, Detection Buffer containing europium-labeled cAMP tracer complex was added to all wells and allowed to react for 1 hour at room temperature. After 1 hour, bound europium-labeled cAMP tracer was measured using a Perkin Elmer ViewLux. The quantity of cAMP generated in each well was derived from a standard curve. EC50 was determined using nonlinear regression analysis of the cAMP values over a range of agonist concentration (12 points spanning the range from 30 μM to 100pM).
For some compounds for which no EC50 value could be determined, the efficacy is provided at a single concentration (10 μM) yielding % stimulation values.
(In general: cAMP levels reflect the balance of adenylyl cyclase and phosphodiesterase activity.)
On to `CC(C)OC(=O)N1CCC(ON=C2CCN(c3cc(F)c(C4=NCCN4)cc3F)CC2)CC1` [Example 19-1, 4-{1-[4-(4,5-Dihydro-1H-imidazol-2-yl)-2,5-difluoro-phenyl]-piperidin-4-ylideneaminooxy}-piperidine-1-carboxylic acid isopropyl ester], for which the activation at 10 µM came out at 53%. In the case of `CC(C)OC(=O)N1CCC(ON=C2CCN(c3cc(F)c(C(=N)N)cc3F)CC2)CC1` [Example 23-1, 4-[1-(4-Carbamimidoyl-2,5-difluoro-phenyl)-piperidin-4-ylideneaminooxy]-piperidine-1-carboxylic acid isopropyl ester], the activation at 10 µM amounted to 3%.

The experiment is the same for the next values; noted with them: cAMP accumulation, HEK293 cells stably expressing mutant human GPR119; read-out: EC50.
Consider `CC(C)OC(=O)N1CCC(ON=C2CCN(c3cc(F)c(Cn4cccn4)cc3F)CC2)CC1` [Example 14-1, 4-{1[2,5-Difluoro-4-(pyrazol-1-ylmethyl)-phenyl]-piperidin-4-ylideneaminooxy}-piperidine-1-carboxylic acid isopropyl ester], for which the concentration for a half-maximal effect (EC50) is 0.038 µM. Take `CC(C)OC(=O)N1CCC(ON=C2CCN(c3cc(F)c(CS(=O)(=O)C4CC4)cc3F)CC2)CC1` [Example 14-3]: the EC50 turned out to be 0.019 µM. Still for that read-out and setting: then `CC(C)OC(=O)N1CCC(ON=C2CCN(c3cc(F)c(Cn4ccnc4)cc3F)CC2)CC1` [Example 14-4], with 0.268 µM. Still for that read-out and setting: then `CC(C)OC(=O)N1CCC(ON=C2CCN(c3cc(F)c(Cn4cnc5ncccc54)cc3F)CC2)CC1` [Example 14-5], with 0.374 µM; and `CC(C)OC(=O)N1CCC(ON=C2CCN(c3cc(F)c(Cn4cnc5cccnc54)cc3F)CC2)CC1` [Example 14-6], with 0.647 µM. The same measure, in the same setting: then `CC(C)OC(=O)N1CCC(ON=C2CCN(c3cc(F)c(Cn4cccc5ncnc4-5)cc3F)CC2)CC1` [Example 14-7], with 0.713 µM; and `CC(C)OC(=O)N1CCC(ON=C2CCN(c3cc(F)c(Cn4cnc5ccncc54)cc3F)CC2)CC1` [Example 14-8], with 0.763 µM; and `Cc1ccn(Cc2cc(F)c(N3CCC(=NOC4CCN(C(=O)OC(C)C)CC4)CC3)cc2F)n1` [Example 14-9], with 0.257 µM. For `Cc1cnn(Cc2cc(F)c(N3CCC(=NOC4CCN(C(=O)OC(C)C)CC4)CC3)cc2F)c1` [Example 14-10], the EC50 is 0.008 µM. Still for that read-out and setting: then `CCOC(=O)c1cnn(Cc2cc(F)c(N3CCC(=NOC4CCN(C(=O)OC(C)C)CC4)CC3)cc2F)c1` [Example 14-11], with 0.19 µM; and `CC(C)OC(=O)N1CCC(ON=C2CCN(c3cc(F)c(Cn4ccnn4)cc3F)CC2)CC1` [Example 14-12], with 0.032 µM; and `CC(C)OC(=O)N1CCC(ON=C2CCN(c3cc(F)c(Cn4nccn4)cc3F)CC2)CC1` [Example 14-13], with 0.016 µM. Still for that read-out and setting: then `CC(C)OC(=O)N1CCC(ON=C2CCN(c3cc(F)c(Cn4cccc4)cc3F)CC2)CC1` [Example 14-14], with 0.467 µM; and `Cc1nnnn1Cc1cc(F)c(N2CCC(=NOC3CCN(C(=O)OC(C)C)CC3)CC2)cc1F` [Example 14-15], with 0.039 µM; and `Cc1nnn(Cc2cc(F)c(N3CCC(=NOC4CCN(C(=O)OC(C)C)CC4)CC3)cc2F)n1` [Example 14-16], with 0.256 µM. The same measure, in the same setting: then `CC(C)OC(=O)N1CCC(ON=C2CCN(c3cc(F)c(Cn4cnnc4)cc3F)CC2)CC1` [Example 14-17], with 0.028 µM.

On to `CC(C)OC(=O)N1CCC(ON=C2CCN(c3cc(F)c(Cn4cncn4)cc3F)CC2)CC1` [Example 14-18], for which the EC50 is 1.35 µM.

For the molecule `CC(C)OC(=O)N1CCC(ON=C2CCN(c3cc(F)c(CN4CCOC4=O)cc3F)CC2)CC1` [Example 15-1, 4-{1-[2,5-DIFLUORO-4-(2-OXO-OXAZOLIDIN-3-YLMETHYL)-PHENYL]-PIPERIDIN-4-YLIDENEAMINOOXY}-PIPERIDINE-1-CARBOXYLIC ACID ISOPROPYL ESTER], the EC50 is 0.14 µM. As for `CC(C)OC(=O)N1CCC(ON=C2CCN(c3cc(F)c(CN4CCN(C)C4=O)cc3F)CC2)CC1` [Example 15-2], the EC50 was 0.282 µM. `CC(C)OC(=O)N1CCC(ON=C2CCN(c3cc(F)c(CN4CCN(C(=O)OC(C)(C)C)CC4=O)cc3F)CC2)CC1` [Example 15-3]: the concentration giving a half-maximal response (EC50) amounted to 0.408 µM.

With `CCNC(=O)NCc1cc(F)c(N2CCC(=NOC3CCN(C(=O)OC(C)C)CC3)CC2)cc1F` [Example 16-1, 4-(1-{4-[(3-Ethyl-ureido)-methyl]-2,5-difluoro-phenyl}-piperidin-4-ylideneaminooxy)-piperidine-1-carboxylic acid isopropyl ester], the EC50 came out at 0.168 µM.

`CC(=O)NCc1cc(F)c(N2CCC(=NOC3CCN(C(=O)OC(C)C)CC3)CC2)cc1F` [Example 16-2]: the EC50 came out at 0.141 µM.

On to `CC(C)OC(=O)N1CCC(ON=C2CCN(c3cc(F)c(CNS(C)(=O)=O)cc3F)CC2)CC1` [Example 16-3], for which the EC50 amounted to 0.051 µM. Consider `CCOC(=O)NCc1cc(F)c(N2CCC(=NOC3CCN(C(=O)OC(C)C)CC3)CC2)cc1F` [Example 16-4], for which the EC50 is 0.07 µM. The same measure, in the same setting: then `CC(C)OC(=O)N1CCC(ON=C2CCN(c3cc(F)c(CNS(=O)(=O)C(C)C)cc3F)CC2)CC1` [Example 16-5], with 0.142 µM; and `CCS(=O)(=O)NCc1cc(F)c(N2CCC(=NOC3CCN(C(=O)OC(C)C)CC3)CC2)cc1F` [Example 16-6], with 0.113 µM. The same measure, in the same setting: then `CC(C)OC(=O)NCc1cc(F)c(N2CCC(=NOC3CCN(C(=O)OC(C)C)CC3)CC2)cc1F` [Example 16-7], with 0.134 µM; and `CC(C)OC(=O)N1CCC(ON=C2CCN(c3cc(F)c(CNC=O)cc3F)CC2)CC1` [Example 16-8], with 0.12 µM. For `CCOC(=O)CNC(=O)NCc1cc(F)c(N2CCC(=NOC3CCN(C(=O)OC(C)C)CC3)CC2)cc1F` [Example 16-9], the EC50 was determined as 0.401 µM.

For `CC(C)OC(=O)N1CCC(ON=C2CCN(c3cc(F)c(CNS(N)(=O)=O)cc3F)CC2)CC1` [Example 17-1], the EC50 was determined as 0.312 µM. On the same count and under the same terms, then `CC(=O)N(C)Cc1cc(F)c(N2CCC(=NOC3CCN(C(=O)OC(C)C)CC3)CC2)cc1F` [Example 18-1, 4-(1-{4-[(Acetyl-methyl-amino)-methyl]-2,5-difluoro-phenyl}-piperidin-4-ylideneaminooxy)-piperidine-1-carboxylic acid isopropyl ester], with 0.127 µM; and `CC(C)OC(=O)N1CCC(ON=C2CCN(c3cc(F)c(CN(C)S(C)(=O)=O)cc3F)CC2)CC1` [Example 18-2], with 0.15 µM. For the molecule `CC(C)OC(=O)N1CCC(ON=C2CCN(c3cc(F)c(-c4cnco4)cc3F)CC2)CC1` [Example 20-1, 4-[1-(2,5-Difluoro-4-oxazol-5-yl-phenyl)-piperidin-4-ylideneaminooxy]-piperidine-1-carboxylic acid isopropyl ester], the EC50 was 0.1 µM. On to `CC(C)OC(=O)N1CCC(ON=C2CCN(c3ccc(-c4cnco4)cc3F)CC2)CC1` [Example 20-2], for which the concentration for a half-maximal effect (EC50) came out at 0.498 µM.

Turning to `CC(C)OC(=O)N1CCC(ON=C2CCN(c3cc(F)c(-n4ccnc4)cc3F)CC2)CC1` [Example 22-1, 4-[1-(2,5-Difluoro-4-imidazol-1-yl-phenyl)-piperidin-4-ylideneaminooxy]-piperidine-1-carboxylic acid isopropyl ester], the EC50 came out at 0.435 µM. Same read-out and setting: then `CC(C)OC(=O)N1CCC(ON=C2CCN(c3cc(F)c(-n4cccc4)cc3F)CC2)CC1` [Example 22-2], with 0.767 µM. On the same count and under the same terms, then `CC(C)OC(=O)N1CCC(ON=C2CCN(c3cc(F)c(-n4cccn4)cc3F)CC2)CC1` [Example 22-3], with 0.062 µM; and `CC(C)OC(=O)N1CCC(ON=C2CCN(c3cc(F)c(-n4cncn4)cc3F)CC2)CC1` [Example 22-4], with 0.033 µM; and `CC(C)OC(=O)N1CCC(ON=C2CCN(c3cc(F)c(N4CCCC4=O)cc3F)CC2)CC1` [Example 22-7], with 0.157 µM. As to `CC(C)OC(=O)N1CCC(ON=C2CCN(c3cc(F)c(-c4cccs4)cc3F)CC2)CC1` [Example 27-1, 4-[1-(2,5-Difluoro-4-thiophen-2-yl-phenyl)-piperidin-4-ylideneaminooxy]-piperidine-1-carboxylic acid isopropyl ester], the EC50 stood at 0.201 µM.

Regarding `Cc1noc(C)c1-c1cc(F)c(N2CCC(=NOC3CCN(C(=O)OC(C)C)CC3)CC2)cc1F` [Example 27-2], the EC50 was greater than 10 µM. `CC(C)OC(=O)N1CCC(ON=C2CCN(c3cc(F)c(-c4ccoc4)cc3F)CC2)CC1` [Example 27-3]: the concentration giving a half-maximal response (EC50) is 0.591 µM. On the same count and under the same terms, then `CC(C)OC(=O)N1CCC(ON=C2CCN(c3cc(F)c(-c4cccnc4)cc3F)CC2)CC1` [Example 27-4], with 0.182 µM.
